Reference: patent US9790169B2, “IDO inhibitors” (BRISTOL-MYERS SQUIBB COMPANY, priority 2015, dated 2017)

Target: human IDO1 (Homo sapiens, UniProt P14902)
Experiment: Assessment of human IDO-1 inhibitory activity in HEK cells (human IDO1/HEK293 cells, kynurenine read-out with Ehrlich reagent, absorbance 490 nm)
Type: cell-based
Design: expressed in transfected cells
Conditions: HEK Human IDO-1 cellular assay
Outline: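 HEK293 cells stably expressing human IDO1 were seeded at 10,000 per well in phenol red-free RPMI with 10% FBS, treated with compound for 20 h at 37 °C. Kynurenine was measured after TCA (0.2% final) and 30 min at 50 °C, using Ehrlich reagent, A490. IC50 normalised to DMSO (0%) and 500 nM reference standard (100%).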

human IDO1, sequence (P14902 whole entry): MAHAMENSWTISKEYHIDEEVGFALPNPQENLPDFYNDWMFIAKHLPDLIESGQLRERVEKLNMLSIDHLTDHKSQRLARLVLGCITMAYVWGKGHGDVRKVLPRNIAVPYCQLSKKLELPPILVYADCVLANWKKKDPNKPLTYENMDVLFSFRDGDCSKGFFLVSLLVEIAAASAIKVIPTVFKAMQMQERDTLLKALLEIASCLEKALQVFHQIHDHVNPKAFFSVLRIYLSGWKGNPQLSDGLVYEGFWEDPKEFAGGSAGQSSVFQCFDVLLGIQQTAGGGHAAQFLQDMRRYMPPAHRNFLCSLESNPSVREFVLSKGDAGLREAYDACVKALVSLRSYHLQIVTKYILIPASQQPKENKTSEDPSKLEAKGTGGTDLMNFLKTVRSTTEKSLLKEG

Question: With `CCN(c1ccc(C(CC(=O)O)c2ccccc2)cc1NC(=O)Nc1ccc(C)cc1)C1CCOCC1` (single isomer, unassigned) [Example 584, 3-(4-(Ethyl(tetrahydro-2H-pyran-4-yl)amino)-3-(3-(p-tolyl)ureido)phenyl)-3-phenylpropanoic acid] as the molecule, how does the IC50 read?
Answer: > 50 nM

Question: With `COCC(CC(=O)O)c1ccc(N(CC(C)C)CC(C)C)c(NC(=O)Nc2ccc(Cl)cc2F)c1` (racemic) [Example 994, (+/−)-3-(3-(3-(4-Chloro-2-fluorophenyl)ureido)-4-(diisobutylamino)phenyl)-4-methoxybutanoic acid] as the molecule, how does the IC50 read?
Answer: < 5 nM

Question: With `CCCN(c1ccc(C(CC)CC(=O)O)cc1NC(=O)Nc1cnc(C)nc1)C1CCOCC1` (racemic) [Example 610, 3-(3-(3-(2-methylpyrimidin-5-yl)ureido)-4-(propyl(tetrahydro-2H-pyran-4-yl)amino)phenyl)pentanoic acid] as the molecule, how does the IC50 read?
Answer: > 50 nM

Question: `C[C@@H]1CN(c2ccc(C(C)(C)CC(=O)O)cc2Nc2ccc(Cl)cc2)C[C@H](C)O1` [Example 733, 3-(3-((4-chlorophenyl)amino)-4-((2S,6R)-2,6-dimethylmorpholino)phenyl)-3-methylbutanoic acid] was tested. Which IC50 did it give?
Answer: < 50 nM

Question: How did the IC50 turn out when `CCC(CC(=O)O)c1ccc(N(CC(C)C)C2CCCCC2)c(Nc2ccc3c(c2)OC(F)(F)O3)c1` (single isomer, unassigned) [Example 315, 3-(4-(Cyclohexyl(isobutyl)amino)-3-((2,2-difluorobenzo[d][1,3]dioxol-5-yl)amino)phenyl)pentanoic acid] was run?
Answer: > 50 nM

Question: For `COc1ncc(Nc2cc(C(C)(C)CC(=O)O)ccc2N2C[C@@H](C)O[C@@H](C)C2)cn1` [Example 735, 3-(4-((2S,6R)-2,6-dimethylmorpholino)-3-((2-methoxypyrimidin-5-yl)amino)phenyl)-3-methylbutanoic acid], which IC50 is on record?
Answer: > 50 nM

Question: `CCC(CC(=O)O)c1ccc(N2CCC[C@H]2C(C)(C)O)c(NC(=O)Nc2ccc(F)cc2)c1` (single isomer, unassigned) [Example 813] was tested. Which IC50 did it give?
Answer: > 50 nM

Question: `CCc1ccc(Nc2cc([C@@H](CC)CC(=O)O)ccc2N(CC)C2CCCCC2)cc1` (single isomer, unassigned) [Example 282] was tested. Which IC50 did it give?
Answer: < 5 nM

Question: With `CCOc1ccc(NC(=O)Nc2cc(C(CC(=O)O)C3CC3)ccc2N(CC(C)C)C2CCOCC2)cc1` (racemic) [Example 1204, (+/−)-3-Cyclopropyl-3-(3-(3-(4-ethoxyphenyl)ureido)-4-(isobutyl(tetrahydro-2H-pyran-4-yl)amino)phenyl)propanoic acid] as the molecule, how does the IC50 read?
Answer: < 50 nM

Question: How did the IC50 turn out when `CC[C@@H](CC(=O)O)c1ccc(N(CC(C)C)C2CCS(=O)(=O)CC2)c(Nc2ccc3c(c2)OC(F)(F)O3)c1` (single isomer, unassigned) [Example 220] was run?
Answer: < 5 nM

Question: For `CC[C@@H](CC(=O)O)c1ccc(N(CC(C)(C)O)C2CCOCC2)c(Nc2ccc(Cl)c(OCC(F)(F)F)c2)c1` (single isomer, unassigned) [Example 200], which IC50 is on record?
Answer: < 50 nM

Question: For `CCOc1ncc(Nc2cc([C@@H](CC)CC(=O)O)ccc2N(CC)C2CCOCC2)cn1` (single isomer, unassigned) [Example 455], which IC50 is on record?
Answer: < 50 nM

Question: With `CC[C@H](CC(=O)O)c1ccc(N(CC)C2CCOCC2)c(Nc2cnc(OCC3CC3)nc2)c1` (single isomer, unassigned) [Example 520] as the molecule, how does the IC50 read?
Answer: < 5 nM

Question: `CC[C@H](CC(=O)O)c1ccc(N2C[C@@H](C)O[C@@H](C)C2)c(NC(=O)Nc2ccc(C)cc2)c1` (single isomer, unassigned) [Example 760] was tested. Which IC50 did it give?
Answer: > 50 nM

Question: With `CCC(CC(=O)O)c1ccc(N(CC(C)C)CC(C)C)c(NC(=O)Cc2ccc(C#N)cc2)c1` (racemic) [Example 950, (+/−)-3-(3-(2-(4-Cyanophenyl)acetamido)-4-(diisobutylamino)phenyl)pentanoic acid] as the molecule, how does the IC50 read?
Answer: < 5 nM

Question: With `CCOc1ncc(Nc2cc(C(C)CC(=O)O)ccc2N(CC(C)(C)O)C2CCCCC2)cn1` (single isomer, unassigned) [Example 50, 3-(4-(cyclohexyl(2-hydroxy-2-methylpropyl)amino)-3-((2-ethoxypyrimidin-5-yl)amino)phenyl)butanoic acid] as the molecule, how does the IC50 read?
Answer: > 50 nM

Question: Which IC50 does the source give for `CCOc1ccc(NC(=O)Nc2cc(C(COC)CC(=O)O)cc(F)c2N(CC(C)C)CC(C)C)cc1` (single isomer, unassigned) [Example 1179, 3-(4-(Diisobutylamino)-3-(3-(4-ethoxyphenyl)ureido)-5-fluorophenyl)-4-methoxybutanoic acid] here?
Answer: < 50 nM

Question: Which IC50 does the source give for `CCOc1ccc(NC(=O)Nc2cc(C(COC)CC(=O)O)cc(F)c2N(CC(C)C)C2CCCCC2)c(F)c1` (single isomer, unassigned) [Example 1157, 3-(4-(cyclohexyl(isobutyl)amino)-3-(3-(4-ethoxy-2-fluorophenyl)ureido)-5-fluorophenyl)-4-methoxybutanoic acid] here?
Answer: < 5 nM

Question: For `CCC(CC(=O)O)c1cc(NC(=O)Nc2ccc(C)cc2)c(N(CC(C)C)C2CCCCC2)cc1F` (single isomer, unassigned) [Example 1106, 3-(4-(Cyclohexyl(isobutyl)amino)-2-fluoro-5-(3-(p-tolyl)ureido)phenyl)pentanoic acid], which IC50 is on record?
Answer: < 5 nM

Question: Which IC50 does the source give for `CCc1ccc(Nc2cc(C(C)CC(=O)O)ccc2N2C[C@@H](C)O[C@@H](C)C2)cc1` (single isomer, unassigned) [Example 740] here?
Answer: > 50 nM

Question: How did the IC50 turn out when `CCCN(c1ccc(C(CC)CC(=O)O)cc1Nc1ncc(CC)cn1)C1CCOCC1` (racemic) [Example 611, 3-(3-((5-Ethylpyrimidin-2-yl)amino)-4-(propyl(tetrahydro-2H-pyran-4-yl)amino)phenyl)pentanoic acid] was run?
Answer: < 50 nM

Question: For `COc1ncc(Nc2cc(C(C)CC(=O)O)ccc2N2CCC[C@H]2C(C)(C)O)cn1` (single isomer, unassigned) [Example 801], which IC50 is on record?
Answer: > 50 nM

Question: With `CCOc1ncc(Nc2cc([C@H](CC)CC(=O)O)ccc2N(CC(C)(C)O)C2CCCCC2)cn1` (single isomer, unassigned) [Example 240] as the molecule, how does the IC50 read?
Answer: < 50 nM

Question: With `CC[C@H](CC(=O)O)c1ccc(N(CC(C)(C)O)C2CCOCC2)c(Nc2ccc3c(c2)OC(F)(F)O3)c1` (single isomer, unassigned) [Example 204] as the molecule, how does the IC50 read?
Answer: < 5 nM

Question: Which IC50 does the source give for `CCC(CC(=O)O)c1ccc(N2CCC[C@H]2C(C)(C)O)c(NC(=O)Nc2cc(C)on2)c1` (single isomer, unassigned) [Example 815] here?
Answer: > 50 nM

Question: For `CCC(CC(=O)O)c1ccc(N2CCC[C@H]2C(C)(C)F)c(Nc2ccc3c(c2)OC(F)(F)O3)c1` (single isomer, unassigned) [Example 796], which IC50 is on record?
Answer: > 50 nM

Question: For `CCC(CC(=O)O)c1ccc(N2CCC[C@H]2C(C)(C)O)c(Nc2ccc(Cl)cc2)c1` (single isomer, unassigned) [Example 836], which IC50 is on record?
Answer: < 50 nM

Question: `CCCN(c1ccc([C@@H](CC)CC(=O)O)cc1Nc1ccc2c(c1)OC(F)(F)O2)C1CCOCC1` (single isomer, unassigned) [Example 539] was tested. Which IC50 did it give?
Answer: < 5 nM

Question: How did the IC50 turn out when `CCOc1ccc(NC(=O)Nc2cc([C@H](CC)CC(=O)O)ccc2N2CCC[C@H]2C(C)(C)O)cc1` (single isomer, unassigned) [Example 810] was run?
Answer: > 50 nM

Question: For `CC[C@H](CC(=O)O)c1ccc(N2CCC[C@@H]2C(C)(C)O)c(Nc2ccc(Cl)cc2)c1` (single isomer, unassigned) [Example 780], which IC50 is on record?
Answer: < 5 nM
